From US7445765B2, “Radiopharmaceutical for diagnostic imaging containing a technetium-99m nitride heterocomplex” (Nihon Medi-Physics Co., Ltd., priority 2000, dated 2008)

Key:
[1] = Stability: ligand exchange reaction with cysteine or glutathione; assay type: physicochemical; conditions: phosphate buffer pH 7.4, 37° C., up to 2 hours, TLC
Experimental: The stability of the ^99mTc(N) heterocomplexes obtained using PNP3 as a bisphosphinoamine compound in Example 1 was confirmed by ligand exchange reaction with cysteine or glutathione.
250.0 μL of phosphate buffer solution (0.20 M, pH=7.4), 100 μL of water and 100 μL of each of the ^99mTc(N) heterocomplexes purified were mixed with 50 μL of each of cysteine solutions having different concentrations of 10 mM and 1.0 mM, and the resulting mixture was placed in a polypropylene test tube and incubated in a thermostat at 37° C. A blank solution was obtained by mixing an equal volume of water without addition of cysteine. Aliquots of the resulting solutions were withdrawn at 15 min, 30 min, 60 min and 2 hours after the start of the incubation, and analyzed by TLC. The same experiment as above was carried out except for using glutathione in place of cysteine. All the ^99mTc(N) heterocomplex samples were found stable against transchelation by cystein or glutathione.

[2] = Measurement of Log k′ (partition ratio) by HPLC, PNP3 heterocomplexes; assay type: physicochemical; conditions: HPLC C18, methanol/phosphate buffer (0.02M, pH 7.4), 1.0 mL/min; extrapolated to 0% organic solvent
Experimental: For the various ^99mTc(N) heterocomplexes synthesized using PNP3 as a bisphosphinoamine compound in Example 1, Log k′ values were determined at various compositions of a mobile phase for HPLC. As the mobile phase, mixtures of methanol and phosphate buffer (0.02M, pH=7.4) were used at a flow rate of 1.0 mL/min. For each sample, the retention time was measured at a minimum of three different methanol concentrations in the mobile phase. The Log k′ values at 0% organic solvent (Log k′0) were extrapolated from the linear part of the curve Log k′=a+bC, where C is the methanol concentration, and Log k′ is Log (tR-to)/to wherein tR is HPLC retension time (min). The column void time (t0) was regarded as being equal to the elution time of pertechnetic acid.

[3] = Biodistribution of the 99mTc(N) heterocomplexes in rats (organ uptake, heart accumulation, heart/lung and heart/liver ratios); assay type: in vivo, female Sprague-Dawley rats
Procedure, shortened: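 Female Sprague-Dawley rats (200–250 g, n=3), ketamine/xylazine anaesthesia, got 300–370 kBq of each purified heterocomplex in pH 7.4 phosphate buffer (10% ethanol) via the jugular vein. They were killed at several post-injection times. Heart blood and washed, weighed organs were gamma-counted, taking whole blood as 6.5% of body weight.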

## COCCC[P]1(CCCOC)CCN(CCOC)CC[P](CCCOC)(CCCOC)[99Tc+]12(#[N])[S]C(N(CCOC)CCOC)=[S]2 [[^99mTc(N) (PNP3) (DPODC)]^+]
[1]
  Stability: Stable
[2]
  Log k′ (partition ratio): 3.18
[3]; 0 min post injection
  Biodistribution in rats: Adrenal glands: 1.65 ± 0.22 % ID/g
  Biodistribution in rats: Blood: 1.36 ± 0.02 % ID/g
  Biodistribution in rats: Brain: 0.20 ± 0.02 % ID/g
  Biodistribution in rats: Heart: 3.08 ± 0.31 % ID/g
  Biodistribution in rats: Intestine: 3.25 ± 0.60 % ID/g
  Biodistribution in rats: Kidneys: 6.36 ± 0.13 % ID/g
  Biodistribution in rats: Liver: 3.48 ± 0.24 % ID/g
  Biodistribution in rats: Lungs: 1.45 ± 0.04 % ID/g
  Biodistribution in rats: Muscle: 0.27 ± 0.02 % ID/g
  Biodistribution in rats: Spleen: 1.23 ± 0.01 % ID/g
  Biodistribution in rats: Submaxillary glands: 2.27 ± 0.20 % ID/g
[3]; 2 min post injection
  Biodistribution in rats: Adrenal glands: 0.98 ± 0.12 % ID/g
  Biodistribution in rats: Blood: 0.30 ± 0.09 % ID/g
  Biodistribution in rats: Brain: 0.02 ± 0.00 % ID/g
  Biodistribution in rats: Heart: 2.06 ± 0.13 % ID/g
  Biodistribution in rats: Intestine: 4.30 ± 1.74 % ID/g
  Biodistribution in rats: Kidneys: 8.21 ± 0.62 % ID/g
  Biodistribution in rats: Liver: 3.71 ± 0.36 % ID/g
  Biodistribution in rats: Lungs: 0.65 ± 0.06 % ID/g
  Biodistribution in rats: Muscle: 0.25 ± 0.04 % ID/g
  Biodistribution in rats: Spleen: 0.51 ± 0.04 % ID/g
  Biodistribution in rats: Submaxillary glands: 1.22 ± 0.11 % ID/g
[3]; 10 min post injection
  Biodistribution in rats: Adrenal glands: 1.49 ± 0.82 % ID/g
  Biodistribution in rats: Blood: 0.21 ± 0.00 % ID/g
  Biodistribution in rats: Brain: 0.01 ± 0.00 % ID/g
  Biodistribution in rats: Heart: 2.37 ± 0.33 % ID/g
  Biodistribution in rats: Intestine: 4.36 ± 2.28 % ID/g
  Biodistribution in rats: Kidneys: 6.82 ± 3.62 % ID/g
  Biodistribution in rats: Liver: 3.49 ± 0.09 % ID/g
  Biodistribution in rats: Lungs: 0.67 ± 0.23 % ID/g
  Biodistribution in rats: Muscle: 0.29 ± 0.08 % ID/g
  Biodistribution in rats: Spleen: 0.57 ± 0.22 % ID/g
  Biodistribution in rats: Submaxillary glands: 1.70 ± 0.60 % ID/g
[3]; 20 min post injection
  Biodistribution in rats: Adrenal glands: 1.46 ± 0.15 % ID/g
  Biodistribution in rats: Blood: 0.08 ± 0.02 % ID/g
  Biodistribution in rats: Brain: 0.01 ± 0.00 % ID/g
  Biodistribution in rats: Heart: 2.49 ± 0.31 % ID/g
  Biodistribution in rats: Intestine: 14.47 ± 4.75 % ID/g
  Biodistribution in rats: Kidneys: 5.63 ± 2.05 % ID/g
  Biodistribution in rats: Liver: 1.86 ± 0.47 % ID/g
  Biodistribution in rats: Lungs: 0.43 ± 0.05 % ID/g
  Biodistribution in rats: Muscle: 0.39 ± 0.12 % ID/g
  Biodistribution in rats: Spleen: 0.38 ± 0.04 % ID/g
  Biodistribution in rats: Submaxillary glands: 1.38 ± 0.07 % ID/g
[3]; 30 min post injection
  Biodistribution in rats: Adrenal glands: 1.31 ± 0.19 % ID/g
  Biodistribution in rats: Blood: 0.04 ± 0.00 % ID/g
  Biodistribution in rats: Brain: 0.01 ± 0.00 % ID/g
  Biodistribution in rats: Heart: 2.57 ± 0.06 % ID/g
  Biodistribution in rats: Intestine: 11.78 ± 1.78 % ID/g
  Biodistribution in rats: Kidneys: 4.88 ± 0.56 % ID/g
  Biodistribution in rats: Liver: 1.30 ± 0.71 % ID/g
  Biodistribution in rats: Lungs: 0.41 ± 0.04 % ID/g
  Biodistribution in rats: Muscle: 0.32 ± 0.08 % ID/g
  Biodistribution in rats: Spleen: 0.37 ± 0.00 % ID/g
  Biodistribution in rats: Submaxillary glands: 1.53 ± 0.17 % ID/g
[3]; 60 min post injection
  Biodistribution in rats: Adrenal glands: 1.17 ± 0.17 % ID/g
  Biodistribution in rats: Blood: 0.02 ± 0.01 % ID/g
  Biodistribution in rats: Brain: 0.01 ± 0.00 % ID/g
  Biodistribution in rats: Heart: 2.26 ± 0.60 % ID/g
  Biodistribution in rats: Intestine: 11.05 ± 5.05 % ID/g
  Biodistribution in rats: Kidneys: 3.44 ± 0.76 % ID/g
  Biodistribution in rats: Liver: 0.42 ± 0.23 % ID/g
  Biodistribution in rats: Lungs: 0.27 ± 0.09 % ID/g
  Biodistribution in rats: Muscle: 0.27 ± 0.04 % ID/g
  Biodistribution in rats: Spleen: 0.18 ± 0.10 % ID/g
  Biodistribution in rats: Submaxillary glands: 1.33 ± 0.46 % ID/g
[3]; 120 min post injection
  Biodistribution in rats: Adrenal glands: 1.14 ± 0.15 % ID/g
  Biodistribution in rats: Blood: 0.01 ± 0.00 % ID/g
  Biodistribution in rats: Brain: 0.01 ± 0.00 % ID/g
  Biodistribution in rats: Heart: 2.45 ± 0.41 % ID/g
  Biodistribution in rats: Intestine: 16.10 ± 2.10 % ID/g
  Biodistribution in rats: Kidneys: 3.43 ± 0.38 % ID/g
  Biodistribution in rats: Liver: 0.16 ± 0.04 % ID/g
  Biodistribution in rats: Lungs: 0.20 ± 0.04 % ID/g
  Biodistribution in rats: Muscle: 0.36 ± 0.12 % ID/g
  Biodistribution in rats: Spleen: 0.14 ± 0.03 % ID/g
  Biodistribution in rats: Submaxillary glands: 1.36 ± 0.14 % ID/g
